Reference: US20230348506A1, “MACROCYCLIC PANTETHEINE DERIVATIVES AND USES THEREOF” (VectivBio Comet AG, priority 2019, published 2023)

Experiments:
Format in all cases: cell-based, human
[1] = system: Methylmalonic Acidemia (MMA) Primary fibroblasts (Tsi 5224 Trans-Hit Bio, 21498 Telethon Network of Genetic Biobanks); experiment: Measurement of ATP (ATPlite assay); settings: 10 μM compound for 2 hours
Experimental: Primary adherent fibroblasts were cultured in minimum essential medium (MEM) (Gibco, 25030081) supplemented with 2 mM L-Glutamine (Gibco, 25030081), 15% fetal bovine serum (FBS) (Gibco, 26400044) and 1% penicillin/streptomycin (Gibco, 5140122) at 37° C. and 5% CO2. Cells were collected for either passaging or experiment at ˜70-80% confluence. Cells were obtained by trypsinization and seeded in cell culture microplates either white plate (Thermo Fisher Scientific, 152028) for luminescent measurement or black plate (Thermo Fisher Scientific, 165305) for fluorescent based read out for different assays listed below. Cells were obtained by trypsinization and […] were seeded and allowed to adhere for 16-18 hours to have confluency around 70-80% in the cell well with culture media. After 24 hours prior to measurements (37° C., 5% CO2) media was changed to Dulbecco's Modified Eagle Medium (DMEM, Agilent Seahorse cat #103575-100) with the appropriate supplements (1 mM glucose, 2 mM L-glutamine, 1 mM pyruvate, 10% FBS).
Assay was performed according to manufacturer instructions (ATPlite Assay Perkin Elmer, 6016941). 50 μl of cell lysis buffer was added to each well with cells in 100 μl of media and incubated for 5 mins at RT in an orbital shaker at 700 rpm to lyse the cells and stabilize the ATP. […]

[2] = system: CD14+ monocytes differentiated to M1 macrophages; experiment: M1 differentiation assay (IL6 by ELISA); settings: 10 μM compound
Experimental: Monocytes were isolated by positive isolation with CD14+ microbeads (Miltenyi, 130-050-201). Monocytes were 99% viable and were 96% purity as analyzed by FACS and CD14+ (BD, 563561). 100,000 monocytes along with compounds at the dose of 10 and 50 μM were allowed to differentiate to macrophages with 10 ng/ml GMCSF (R&D, 15-GM-050/CF) in RPMI complete media (Invitrogen, 22400089) with 15% FBS (Hyclone SV30087.03) and 1% Penicillin-Streptomycin (Gibco, 15140-122). On day 2 and 4 half the media was refreshed with fresh GM-CSF and compounds at 10 and 50 μM dose. On day 6 the macrophages were matured with GMCSF, IFNγ (R&D 285-IF-100/CF) and LPS (Sigma, L6143) in the presence of 10 μM and 50 μM of compounds. After 24 h, supernatant was collected for the measurement of TNFα (DKW, 1117202) IL6 (DKW, 1110602), IL10 (DKW, 1110003) by ELISA. Macrophages were detached gently on ice with EDTA (Invitrogen, 15575-038) and analyzed by FACS (BD LSR Fortessa, 853492). […]

[3] = system: MMA Patient fibroblasts (GM01673, Coriell Institute for Medical Research); experiment: Mitochondrial fusion and networking (high-content imaging); design: key: Mitochondrial elongation and networking was described as slight, mild or good; Mitochondrial elongation and networking was described as slight, mild or good; Mitochondrial elongation and networking was described as slight, mild or good; settings: 10 μM compound, 2 hours, compared to vehicle control
Experimental: (§1) Cells were seeded in 96-well plates (density 3000 cells/well) in culture minimum MEM (GIBCO, 10370-021) supplemented with 2 mM L-Glutamine (Thermo Fisher Scientific), 15% FBS (Thermo Fisher Scientific 26400044) and 1% penicillin/streptomycin. Cells were incubated for 48 hours (37° C, 5% CO2), then treated with 10 μM compounds from the present disclosure, 1% DMSO (vehicle) or 5 μM FCCP (control) for 2 hours in fasted conditional medium: Agilent XF DMEM (Agilent 103575-100), pH 7.4 supplemented with 10% FBS (Thermo Fisher Scientific 26400044), 0.03% penicillin/streptomycin 1 mM glucose, 2 mM L-glutamine and 1 mM pyruvate.
(§2) After treatment, media was removed, and cells were stained with 100 μl of 1×mixture dye solution of 1 μg/mL JC-1 (Invitrogen Cat #T3168) and 50 ng/ml MitoTracker deep red (Invitrogen Cat #M22426) at 37° C. for 30 minutes. Next, staining was removed, the cells were washed once with 150 μl PBS, and 150 μl of fasted conditional medium (described above) is added to each well. Analysis was carried out on live cells using a Thermo Scientific CellInsight CX7 LZR High-Content Screening Platform. Mitochondrial elongation and networking was described as slight, mild or good.

[4] = system: PA Patient fibroblasts (Tsi 3618 Trans-Hit Bio); experiment: as above; design: key: Mitochondrial elongation and networking was described as slight, mild or good; Mitochondrial elongation and networking was described as slight, mild or good; Mitochondrial elongation and networking was described as slight, mild or good; settings: 10 μM compound, 2 hours, compared to vehicle control
Experimental: as §1, §2

## CC1(C)COC(=O)CCC(=O)SCCNC(=O)CCNC(=O)[C@@H]1O [Compound 206, (R)-15-hydroxy-16,16-dimethyl-1-oxa-6-thia-9,13-diazacycloheptadecane-2,5,10,14-tetraone]
[1]
  increase of ATP levels: at least 5%
[2]
  decrease of levels of IL-6 protein: at least 40%
[3]
  mitochondrial elongation and networking: good
[4]
  mitochondrial elongation and networking: mild
